Measurements from patent US20250290076A1, “EPICARDIAL CELL REGENERATION PROMOTER AND METHOD FOR PROMOTING EPICARDIAL CELL REGENERATION” (KYOTO UNIVERSITY, priority 2022, published 2025).

How the values were obtained:
Assay type in all cases: cell-based
[1] = test system: human iPS cell-derived fetal epicardium; experiment: Cell proliferation curve assay; details: cell proliferation curves for 7 days after siRNA transfection; vs negative control siRNA
Protocol: (§1) In the siRNA transfection assay, the human iPS cell-derived fetal epicardium was seeded at a density of 0.8×10^6 cells per 10 cm dish, and transfection was carried out using RNAiMax (Invitrogen). Twenty-four hours after the transfection, the culture medium was replaced with a fresh medium. A small interfering RNA (siRNA) (sense strand: CAAGGAGUCAGACAUUUUAtt (SEQ ID NO: 1), an anti-sense strand: UAAAAUGUCUGACUCCUUGtt (SEQ ID NO: 2)) targeting CDKN1A, and a negative control siRNA No.1 (4390843) derived from Ambion Silencer Select, were used in accordance with the manufacturer's instructions.
The cell proliferation was evaluated by the time-course curve of the proliferation of the cells on a six-well plate. The cells were seeded at a density of 4 ×10^4 cells per well, and the total number of cells was counted using trypan blue for 8 days at intervals of 24 hours. The cell proliferation curves were generated by plotting the number of cells against time. After seeding, the cells were fixed with 4% paraformaldehyde (PFA), and stained with crystal violet on the days the cells were counted. The values were represented as the cell proliferation rate of the cells proliferated in the presence of 10% FBS. “0%” refers to the number of cells on day 0. […]

CDKN1A = experiment: siRNA transfection assay, relative CDKN1A mRNA expression by quantitative RT-PCR; details: human iPS cell-derived fetal epicardium; vs negative control siRNA; normalized with GAPDH
Protocol: as §1
RNAs were extracted using QIAzol lysis reagent (manufactured by QIAGEN N.V.), and cDNA was synthesized from the total RNA using ReverTra Ace qPCR RT Master Mix with gDNA Remover (manufactured by TOYOBO Co., Ltd.). Subsequently, quantitative RT-PCR was performed using Thunderbird SYBR qPCR Mix (manufactured by TOYOBO Co., Ltd.)), in One Step Real-Time PCR System (Applied Biosystems). The gene expression results were quantified by the AACt method, and normalized with GAPDH.
The primers used are as follows. […]
The human iPS cell-derived fetal epicardium was subjected to siRNA transfection assay, using a siRNA (siCDKN1A) targeting CDKN1A or a negative control siRNA (control), and the relative mRNA expression levels of CDKN1A were measured by quantitative RT-PCR.

human epicardial cells = experiment: Colony formation assay; details: colony formation for 14 days after siRNA transfection; vs negative control siRNA
Protocol: as §1
[…] Thereafter, the colony was fixed with 4% PFA, stained with crystal violet, and counted by Image-J.
The colony formation assay was carried out in the same manner, in order to measure the viability of the human epicardial cells.

[2] = test system: human iPS cell-derived fetal epicardium; experiment: Transcriptome analysis for gene signature of cell quiescence by RNA sequencing; details: compared to human iPS cell-derived fetal epicardium and adult epicardium
Protocol: as §1
The data obtained by RNA sequencing were normalized using NOISeq. The data of the adult epicardium are published for the analysis, under the GSE accession number: GSE8484085. The primary data of the RNA sequencing were processed using RStudio, for mapping and gene expression analysis. The gene expression data for searching, loading and pre-processing were processed using the Bioconductor package, NOISeq, for performing the data analysis and the differential expression analysis of the RNA sequencing data. Heatmaps for clustering differentially expressed genes (DEG) were generated, using R script.
In addition, the transcriptome analysis for detecting the gene signature of cell quiescence was carried out by RNA sequencing (FIG. 6). […]

[3] = test system: human iPS cell-derived fetal epicardium; experiment: Wound-healing assay; details: from 20 hours to 24 hours after scratching; vs negative control siRNA
Protocol: as §1
The cells were seeded on a six-well plate and cultured until 100% confluent. Subsequently, the cell monolayer was scratched with a pipette tip, to create a physical wound manually. The scratched area was imaged 0, 12, 16, 20 and 24 hours after scratching. The area without cells at the beginning, and the remaining area after 12, 16, 20 and 24 hours, were quantified by Image-J. Thereafter, the percentage of the scratched area into which migrating cells reassembled (the percentage of the wound-closed area) was calculated, with respect to the scratched area.
Further, the wound-healing assay was performed for the human iPS cell-derived fetal epicardium which had been subjected to the transfection assay using each siRNA. […]

siCDKN1A: siRNA targeting CDKN1A; sense strand CAAGGAGUCAGACAUUUUAtt (SEQ ID NO: 1), anti-sense strand UAAAAUGUCUGACUCCUUGtt (SEQ ID NO: 2) (sense CAAGGAGUCAGACAUUUUATT; antisense UAAAAUGUCUGACUCCUUGTT; chemistry not given here)
proliferative capacity of the human epicardial cells [1]: significant increase
expression level of CDKN1A at the mRNA level as compared to that in the control (CDKN1A): ≤ 50%
viability of the human epicardial cells (colony formation) (human epicardial cells): significant increase
cell quiescence gene signature [2]: more released from quiescence
wound healing capacity (percentage of the wound-closed area) [3]: significant increase
